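Exposure lasted 48 hours, with cells grown in 96-well plates and compounds tested at five concentrations. Here, GI50 denotes the concentration required for 50% inhibition of growth. TGI marks complete inhibition of growth.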
What follows are molecules tested on NCI/ADR-RES ovarian (assay: inhibition of tumour cell growth, NCI panel, 48 h).

SMILES	TGI
CS(=O)(=O)OCCCCOS(=O)(=O)CF	> 100 µM

What follows are molecules tested on TK-10 renal (assay: inhibition of tumour cell growth, NCI panel, 48 h).

SMILES	TGI	GI50
NC(N)=Nc1ccc(-c2ccc(N=C(N)N)cc2)cc1	36.5 µM	
O=C1c2cccnc2-c2nc(-c3ccccc3[N+](=O)[O-])cc3c2c1nc1ccccc13	36.3 µM	14.7 µM
CC(C)(C)c1cc(C(=O)/C=C/c2c(Cl)cccc2Cl)cc(C(C)(C)C)c1O	41.5 µM	
O=[N+]([O-])C(=C(Cl)Cl)C(Cl)=C(Cl)Cl	1.35 µM	
CC1=C(C(=O)OCCO[N+](=O)[O-])C(c2cccc([N+](=O)[O-])c2)C(C(=O)OC(C)C)=C(C)N1 (configuration not stated)	42.9 µM	
CS(=O)(=O)OCCCCOS(=O)(=O)CF	> 100 µM	

What follows are molecules tested on MCF7 breast (assay: inhibition of tumour cell growth, NCI panel, 48 h).

SMILES	TGI	GI50
NC(N)=Nc1ccc(-c2ccc(N=C(N)N)cc2)cc1	> 100 µM	
O=C1c2cccnc2-c2nc(-c3ccccc3[N+](=O)[O-])cc3c2c1nc1ccccc13	15.4 µM	3.25 µM
CC(C)(C)c1cc(C(=O)/C=C/c2c(Cl)cccc2Cl)cc(C(C)(C)C)c1O	46 µM	
O=[N+]([O-])C(=C(Cl)Cl)C(Cl)=C(Cl)Cl	0.992 µM	
CC1=C(C(=O)OCCO[N+](=O)[O-])C(c2cccc([N+](=O)[O-])c2)C(C(=O)OC(C)C)=C(C)N1 (configuration not stated)	86.3 µM	
CS(=O)(=O)OCCCCOS(=O)(=O)CF	> 100 µM	

What follows are molecules tested on DU-145 prostate (assay: inhibition of tumour cell growth, NCI panel, 48 h).

SMILES	TGI	GI50
NC(N)=Nc1ccc(-c2ccc(N=C(N)N)cc2)cc1	> 76.1 µM	
O=C1c2cccnc2-c2nc(-c3ccccc3[N+](=O)[O-])cc3c2c1nc1ccccc13	33.3 µM	14.9 µM
CC(C)(C)c1cc(C(=O)/C=C/c2c(Cl)cccc2Cl)cc(C(C)(C)C)c1O	> 96.2 µM	
O=[N+]([O-])C(=C(Cl)Cl)C(Cl)=C(Cl)Cl	24 µM	
CC1=C(C(=O)OCCO[N+](=O)[O-])C(c2cccc([N+](=O)[O-])c2)C(C(=O)OC(C)C)=C(C)N1 (configuration not stated)	65.9 µM	
CS(=O)(=O)OCCCCOS(=O)(=O)CF	> 100 µM	

These molecules were tested on SK-MEL-2 melanoma (assay: inhibition of tumour cell growth, NCI panel, 48 h).

SMILES	TGI	GI50
NC(N)=Nc1ccc(-c2ccc(N=C(N)N)cc2)cc1	99.7 µM	
O=C1c2cccnc2-c2nc(-c3ccccc3[N+](=O)[O-])cc3c2c1nc1ccccc13	53.1 µM	10.3 µM
CC(C)(C)c1cc(C(=O)/C=C/c2c(Cl)cccc2Cl)cc(C(C)(C)C)c1O	26.4 µM	
O=[N+]([O-])C(=C(Cl)Cl)C(Cl)=C(Cl)Cl	3.24 µM	
CC1=C(C(=O)OCCO[N+](=O)[O-])C(c2cccc([N+](=O)[O-])c2)C(C(=O)OC(C)C)=C(C)N1 (configuration not stated)	28 µM	
CS(=O)(=O)OCCCCOS(=O)(=O)CF	> 100 µM	

What follows are molecules tested on CCRF-CEM leukemia (assay: inhibition of tumour cell growth, NCI panel, 48 h).

SMILES	TGI	GI50
NC(N)=Nc1ccc(-c2ccc(N=C(N)N)cc2)cc1	> 95.7 µM	
O=C1c2cccnc2-c2nc(-c3ccccc3[N+](=O)[O-])cc3c2c1nc1ccccc13	> 100 µM	> 100 µM
CC(C)(C)c1cc(C(=O)/C=C/c2c(Cl)cccc2Cl)cc(C(C)(C)C)c1O	22 µM	
CC1=C(C(=O)OCCO[N+](=O)[O-])C(c2cccc([N+](=O)[O-])c2)C(C(=O)OC(C)C)=C(C)N1 (configuration not stated)	> 100 µM	
CS(=O)(=O)OCCCCOS(=O)(=O)CF	> 100 µM	

The molecules below were run on HCT-116 colon (assay: inhibition of tumour cell growth, NCI panel, 48 h).

SMILES	TGI	GI50
NC(N)=Nc1ccc(-c2ccc(N=C(N)N)cc2)cc1	> 100 µM	
O=C1c2cccnc2-c2nc(-c3ccccc3[N+](=O)[O-])cc3c2c1nc1ccccc13	16.7 µM	5.83 µM
CC(C)(C)c1cc(C(=O)/C=C/c2c(Cl)cccc2Cl)cc(C(C)(C)C)c1O	23.2 µM	
O=[N+]([O-])C(=C(Cl)Cl)C(Cl)=C(Cl)Cl	0.849 µM	
CC1=C(C(=O)OCCO[N+](=O)[O-])C(c2cccc([N+](=O)[O-])c2)C(C(=O)OC(C)C)=C(C)N1 (configuration not stated)	22.2 µM	
CS(=O)(=O)OCCCCOS(=O)(=O)CF	> 100 µM	

These molecules were tested on SK-MEL-5 melanoma (assay: inhibition of tumour cell growth, NCI panel, 48 h).

SMILES	TGI	GI50
NC(N)=Nc1ccc(-c2ccc(N=C(N)N)cc2)cc1	54.1 µM	
O=C1c2cccnc2-c2nc(-c3ccccc3[N+](=O)[O-])cc3c2c1nc1ccccc13	8.23 µM	2.6 µM
CC(C)(C)c1cc(C(=O)/C=C/c2c(Cl)cccc2Cl)cc(C(C)(C)C)c1O	23.9 µM	
O=[N+]([O-])C(=C(Cl)Cl)C(Cl)=C(Cl)Cl	1.83 µM	
CC1=C(C(=O)OCCO[N+](=O)[O-])C(c2cccc([N+](=O)[O-])c2)C(C(=O)OC(C)C)=C(C)N1 (configuration not stated)	26.1 µM	
CS(=O)(=O)OCCCCOS(=O)(=O)CF	> 100 µM	

The molecules below were run on UACC-257 melanoma (assay: inhibition of tumour cell growth, NCI panel, 48 h).

SMILES	TGI	GI50
NC(N)=Nc1ccc(-c2ccc(N=C(N)N)cc2)cc1	> 100 µM	
O=C1c2cccnc2-c2nc(-c3ccccc3[N+](=O)[O-])cc3c2c1nc1ccccc13	13.3 µM	2.01 µM
CC(C)(C)c1cc(C(=O)/C=C/c2c(Cl)cccc2Cl)cc(C(C)(C)C)c1O	17.6 µM	
O=[N+]([O-])C(=C(Cl)Cl)C(Cl)=C(Cl)Cl	0.74 µM	
CC1=C(C(=O)OCCO[N+](=O)[O-])C(c2cccc([N+](=O)[O-])c2)C(C(=O)OC(C)C)=C(C)N1 (configuration not stated)	25.2 µM	
CS(=O)(=O)OCCCCOS(=O)(=O)CF	> 100 µM	

These molecules were tested on HOP-92 NSCLC (assay: inhibition of tumour cell growth, NCI panel, 48 h).

SMILES	TGI	GI50
NC(N)=Nc1ccc(-c2ccc(N=C(N)N)cc2)cc1	> 100 µM	
O=C1c2cccnc2-c2nc(-c3ccccc3[N+](=O)[O-])cc3c2c1nc1ccccc13	> 100 µM	8.7 µM
CC(C)(C)c1cc(C(=O)/C=C/c2c(Cl)cccc2Cl)cc(C(C)(C)C)c1O	> 95.7 µM	
O=[N+]([O-])C(=C(Cl)Cl)C(Cl)=C(Cl)Cl	1.03 µM	
CC1=C(C(=O)OCCO[N+](=O)[O-])C(c2cccc([N+](=O)[O-])c2)C(C(=O)OC(C)C)=C(C)N1 (configuration not stated)	25.5 µM	
CS(=O)(=O)OCCCCOS(=O)(=O)CF	> 92.4 µM	

The molecules below were run on SK-MEL-28 melanoma (assay: inhibition of tumour cell growth, NCI panel, 48 h).

SMILES	TGI	GI50
NC(N)=Nc1ccc(-c2ccc(N=C(N)N)cc2)cc1	> 100 µM	
O=C1c2cccnc2-c2nc(-c3ccccc3[N+](=O)[O-])cc3c2c1nc1ccccc13	> 63.5 µM	27.6 µM
CC(C)(C)c1cc(C(=O)/C=C/c2c(Cl)cccc2Cl)cc(C(C)(C)C)c1O	41.3 µM	
O=[N+]([O-])C(=C(Cl)Cl)C(Cl)=C(Cl)Cl	0.912 µM	
CC1=C(C(=O)OCCO[N+](=O)[O-])C(c2cccc([N+](=O)[O-])c2)C(C(=O)OC(C)C)=C(C)N1 (configuration not stated)	28.1 µM	
CS(=O)(=O)OCCCCOS(=O)(=O)CF	> 100 µM	

What follows are molecules tested on MDA-MB-231 breast (assay: inhibition of tumour cell growth, NCI panel, 48 h).

SMILES	TGI	GI50
NC(N)=Nc1ccc(-c2ccc(N=C(N)N)cc2)cc1	> 100 µM	
O=C1c2cccnc2-c2nc(-c3ccccc3[N+](=O)[O-])cc3c2c1nc1ccccc13	> 100 µM	3.89 µM
CC(C)(C)c1cc(C(=O)/C=C/c2c(Cl)cccc2Cl)cc(C(C)(C)C)c1O	41.6 µM	
O=[N+]([O-])C(=C(Cl)Cl)C(Cl)=C(Cl)Cl	2.11 µM	
CC1=C(C(=O)OCCO[N+](=O)[O-])C(c2cccc([N+](=O)[O-])c2)C(C(=O)OC(C)C)=C(C)N1 (configuration not stated)	26.1 µM	
CS(=O)(=O)OCCCCOS(=O)(=O)CF	> 100 µM	

These molecules were tested on SR leukemia (assay: inhibition of tumour cell growth, NCI panel, 48 h).

SMILES	TGI	GI50
NC(N)=Nc1ccc(-c2ccc(N=C(N)N)cc2)cc1	> 100 µM	
O=C1c2cccnc2-c2nc(-c3ccccc3[N+](=O)[O-])cc3c2c1nc1ccccc13	> 100 µM	96.1 µM
CC(C)(C)c1cc(C(=O)/C=C/c2c(Cl)cccc2Cl)cc(C(C)(C)C)c1O	> 37 µM	
O=[N+]([O-])C(=C(Cl)Cl)C(Cl)=C(Cl)Cl	> 100 µM	
CC1=C(C(=O)OCCO[N+](=O)[O-])C(c2cccc([N+](=O)[O-])c2)C(C(=O)OC(C)C)=C(C)N1 (configuration not stated)	> 100 µM	
CS(=O)(=O)OCCCCOS(=O)(=O)CF	> 100 µM	

What follows are molecules tested on BT-549 breast (assay: inhibition of tumour cell growth, NCI panel, 48 h).

SMILES	TGI	GI50
NC(N)=Nc1ccc(-c2ccc(N=C(N)N)cc2)cc1	> 100 µM	
O=C1c2cccnc2-c2nc(-c3ccccc3[N+](=O)[O-])cc3c2c1nc1ccccc13	73.2 µM	16.7 µM
CC(C)(C)c1cc(C(=O)/C=C/c2c(Cl)cccc2Cl)cc(C(C)(C)C)c1O	61.7 µM	
O=[N+]([O-])C(=C(Cl)Cl)C(Cl)=C(Cl)Cl	0.528 µM	
CC1=C(C(=O)OCCO[N+](=O)[O-])C(c2cccc([N+](=O)[O-])c2)C(C(=O)OC(C)C)=C(C)N1 (configuration not stated)	27.1 µM	
CS(=O)(=O)OCCCCOS(=O)(=O)CF	> 100 µM	

These molecules were tested on HT29 colon (assay: inhibition of tumour cell growth, NCI panel, 48 h).

SMILES	TGI	GI50
NC(N)=Nc1ccc(-c2ccc(N=C(N)N)cc2)cc1	> 100 µM	
O=C1c2cccnc2-c2nc(-c3ccccc3[N+](=O)[O-])cc3c2c1nc1ccccc13	33.2 µM	17.2 µM
CC(C)(C)c1cc(C(=O)/C=C/c2c(Cl)cccc2Cl)cc(C(C)(C)C)c1O	26.3 µM	
O=[N+]([O-])C(=C(Cl)Cl)C(Cl)=C(Cl)Cl	0.852 µM	
CC1=C(C(=O)OCCO[N+](=O)[O-])C(c2cccc([N+](=O)[O-])c2)C(C(=O)OC(C)C)=C(C)N1 (configuration not stated)	29.2 µM	
CS(=O)(=O)OCCCCOS(=O)(=O)CF	> 100 µM	

The molecules below were run on NCI-H522 lung (assay: inhibition of tumour cell growth, NCI panel, 48 h).

SMILES	TGI	GI50
NC(N)=Nc1ccc(-c2ccc(N=C(N)N)cc2)cc1	> 100 µM	
O=C1c2cccnc2-c2nc(-c3ccccc3[N+](=O)[O-])cc3c2c1nc1ccccc13	6.4 µM	2.1 µM
CC(C)(C)c1cc(C(=O)/C=C/c2c(Cl)cccc2Cl)cc(C(C)(C)C)c1O	17.5 µM	

Source: PubChem BioAssay (NCI)
